DC50 data for 34 molecules are collected here from patent US11912682B2, “Isoindolinone compounds” (Monte Rosa Therapeutics, Inc., priority 2021, dated 2024).

The target of this assay is GSPT1 (Homo sapiens (Human), UniProt P15170+Q96SW2). Put plainly: immunofluorescence assay for GSPT1 degradation in CAL-51 cells (Example 4). The class given is cell-based. The method, then: The representative compounds were tested in an immunofluorescence assay for their activity to bind to degrade GSPT1. CAL-51 cells were purchased from DSMZ (cat. Number ACC302), sub-cultured in 90% Dulbecco's MEM (4.5 g/L glucose, Gibco 11965) +10% heat inactivated FBS (BioConcept, 2-01F136I) and incubated at 37° C., 5% CO2. For the assay, imaging microtiterplate Cell Carrier 96 Ultra (Perkin Elmer 6055302) were pre-coated with Fibronectin (Sigma F085, 30 μl at 0.2 μg/ml) in PBS (100 μl, Gibco 14190) for 45 min at room temperature, rinsed with PBS and CAL-51 cells (30 K cells/well) were plated and let to adhere overnight. Cells were treated with compounds typically using a serial dilution ranging from 30 μM to 0.1 nM for 6 hours. Compounds were stored at 10 mM DMSO stocks. Vehicle (DMSO), positive (CC-885, 10 μM) and rescue controls (positive control plus 0.2 μM bortezomib) were also included atthis stage. Cells were subsequently rinsed with PBS and fixed in 10% Formalin solution (50 μl, Sigma HT5011)) for 20 mins at room temperature. Following three consecutive PBS washes (100 μl), cells were permeabilized in 0.1% Triton X-100 in PBS (Sigma 93443, 50 μl) for 15 mins at room temperature. Following three further PBS washes, 50 μl blocking buffer (1% BSA, Sigma A4503, in PBS) was added for 45 min for signal-to-noise reduction.
Primary antibody (human GSPT1, Sigma HPA052488) was diluted in blocking buffer (dil.1/300, 35 μl/well) and incubated with the cells overnight at 4° C. After three PBS washes, Alexa-fluor 488 coupled secondary antibodies (Invitrogen, A32731, dil.1/1000), Alexa-fluor 647-Phalloidin (Invitrogen, A22287, dil.1/200) and DAPI (Thermo, #62248, dil.1/1000) were diluted in blocking buffer and incubated with the samples for 2 hours at room temperature. After three final PBS washes, samples were conserved in 100 μl PBS in the dark, until measurement. Image acquisition was performed on the Operetta High-Content Imager (Perkin-Elmer). Fluorescence intensity of Alexa-Fluor 488 (GSPT1), Alexa-Fluor 647 (Actin) and DAPI (Nucleus) were measured. For the determination of GSPT1 DC50 values, a custom algorithm implemented in the PerkinElmer image analysis software Harmony-Acapella® was developed. After user-defined setting of adjustment parameters, the analysis was run identically without human intervention for all image fields. DAPI staining of the nuclei was used to determine the location of cells using standard nuclei detection modules. Segmentation artifacts were removed by threshold-based filters for area, roundness and intensity. The outline of the cells was determined analogously from the sum of the normalized, smoothed DAPI and Actin channel, starting from each nucleus. The Alexa-Fluor 488 (GSPT1) signal intensity in each cell was finally measured, in order to obtain a Mean intensity per cell. GSPT1 degradation (DC50) was calculated after normalization to controls and data import in CDD vault Database, using non-linear regression.

[1] abbreviates: 6 hours, read-out: Activity for GSPT1 degradation, Code (DC50).
The mark [2] stands for this setting: GSPT1 degradation, read-out: DC50 value.

Where two headings read alike, the source gives them in different places.

GSPT1, sequence (P15170 whole entry): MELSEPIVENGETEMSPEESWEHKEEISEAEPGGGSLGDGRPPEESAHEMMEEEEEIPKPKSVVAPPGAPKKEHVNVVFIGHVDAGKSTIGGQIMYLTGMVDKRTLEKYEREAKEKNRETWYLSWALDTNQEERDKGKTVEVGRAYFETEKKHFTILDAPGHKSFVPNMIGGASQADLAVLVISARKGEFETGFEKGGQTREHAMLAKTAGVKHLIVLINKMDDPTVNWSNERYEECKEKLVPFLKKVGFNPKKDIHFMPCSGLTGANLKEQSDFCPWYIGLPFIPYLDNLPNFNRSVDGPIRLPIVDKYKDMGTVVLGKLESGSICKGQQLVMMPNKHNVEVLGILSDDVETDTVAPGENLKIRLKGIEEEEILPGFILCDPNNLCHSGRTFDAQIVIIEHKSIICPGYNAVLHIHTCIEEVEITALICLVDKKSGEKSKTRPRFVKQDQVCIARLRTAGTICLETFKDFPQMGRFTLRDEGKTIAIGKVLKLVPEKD
GSPT1, sequence (Q96SW2 whole entry): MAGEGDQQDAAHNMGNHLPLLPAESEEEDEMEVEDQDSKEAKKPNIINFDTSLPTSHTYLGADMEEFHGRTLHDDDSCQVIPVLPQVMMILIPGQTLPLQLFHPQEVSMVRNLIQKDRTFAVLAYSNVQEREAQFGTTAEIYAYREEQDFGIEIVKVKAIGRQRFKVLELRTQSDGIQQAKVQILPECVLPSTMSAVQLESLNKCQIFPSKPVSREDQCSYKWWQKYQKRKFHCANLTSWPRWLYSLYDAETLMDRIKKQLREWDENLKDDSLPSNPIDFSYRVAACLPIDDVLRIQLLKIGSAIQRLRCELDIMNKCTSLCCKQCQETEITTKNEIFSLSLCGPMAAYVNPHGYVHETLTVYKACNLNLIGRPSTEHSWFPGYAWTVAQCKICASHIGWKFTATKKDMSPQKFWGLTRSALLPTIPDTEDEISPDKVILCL
GSPT1, sequence (Q16531 2-1140 partner): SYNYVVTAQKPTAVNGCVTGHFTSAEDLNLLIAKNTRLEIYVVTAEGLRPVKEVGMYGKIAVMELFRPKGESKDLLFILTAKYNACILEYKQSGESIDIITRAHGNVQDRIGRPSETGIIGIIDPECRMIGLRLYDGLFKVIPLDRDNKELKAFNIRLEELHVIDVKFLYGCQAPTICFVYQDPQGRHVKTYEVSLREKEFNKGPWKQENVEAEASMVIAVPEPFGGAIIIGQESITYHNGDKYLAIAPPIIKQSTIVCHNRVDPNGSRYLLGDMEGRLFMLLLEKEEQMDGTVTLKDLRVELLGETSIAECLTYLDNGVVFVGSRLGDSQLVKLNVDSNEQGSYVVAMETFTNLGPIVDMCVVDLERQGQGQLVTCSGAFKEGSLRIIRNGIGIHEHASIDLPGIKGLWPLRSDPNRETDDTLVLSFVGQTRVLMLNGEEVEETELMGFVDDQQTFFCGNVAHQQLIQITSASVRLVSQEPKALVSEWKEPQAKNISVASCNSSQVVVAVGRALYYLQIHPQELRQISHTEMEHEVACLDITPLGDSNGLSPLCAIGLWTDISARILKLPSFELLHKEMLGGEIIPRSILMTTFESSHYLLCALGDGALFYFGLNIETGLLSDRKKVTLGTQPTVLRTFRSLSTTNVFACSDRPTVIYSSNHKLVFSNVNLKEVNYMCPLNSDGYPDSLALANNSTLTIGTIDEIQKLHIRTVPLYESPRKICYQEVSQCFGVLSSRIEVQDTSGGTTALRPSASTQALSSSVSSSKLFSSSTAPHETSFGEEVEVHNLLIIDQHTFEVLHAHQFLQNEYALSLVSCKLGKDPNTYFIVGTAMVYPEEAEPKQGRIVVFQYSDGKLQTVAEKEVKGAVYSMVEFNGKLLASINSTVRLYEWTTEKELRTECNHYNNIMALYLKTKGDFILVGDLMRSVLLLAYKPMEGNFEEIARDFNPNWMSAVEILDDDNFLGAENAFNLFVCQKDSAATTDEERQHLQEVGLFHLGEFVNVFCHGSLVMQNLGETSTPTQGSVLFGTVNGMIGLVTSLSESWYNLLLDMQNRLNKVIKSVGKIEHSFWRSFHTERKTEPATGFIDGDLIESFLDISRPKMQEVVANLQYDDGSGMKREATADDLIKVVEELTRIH

As for `O=C1CCC(N2Cc3ccc(COC(=O)Nc4cccc(OC(F)F)c4)cc3C2=O)C(=O)N1` (stereo not drawn) [Compound 5], the DC50 was < 30 nM under setting [1] and ≤ 30 nM under setting [2].

Take `O=C1CCC(N2Cc3ccc(COC(=O)Nc4ccc(F)c(Cl)c4)cc3C2=O)C(=O)N1` (stereo not drawn) [Compound 9]: the DC50 under setting [1] lay within 30 to 300 nM.

`O=C1CCC(N2Cc3ccc(COC(=O)Nc4cc(F)cc(Cl)c4)cc3C2=O)C(=O)N1` (stereo not drawn) [Compound 12]: the DC50 under setting [1] lay within 30 to 300 nM.

On to `COc1ccc(Cl)cc1NC(=O)OCc1ccc2c(c1)C(=O)N(C1CCC(=O)NC1=O)C2` (stereo not drawn) [Compound 14], for which the DC50 under setting [1] was > 300 nM.

For the molecule `O=C1CCC(N2Cc3ccc(COC(=O)Nc4cc(Cl)cc(OC5CCNC5)c4)cc3C2=O)C(=O)N1` (stereo not drawn) [Compound 20], under setting [1], the DC50 is > 300 nM.

Take `O=C1CCC(N2Cc3ccc(COC(=O)NC4CCCCC4)cc3C2=O)C(=O)N1` (stereo not drawn) [Compound 28]: the DC50 under setting [1] was > 300 nM.

With `CCOc1cc(NC(=O)OCc2ccc3c(c2)C(=O)N(C2CCC(=O)NC2=O)C3)ccc1C` (stereo not drawn) [Compound 33], under setting [1], the DC50 was in the range of 30 to 300 nM.

Regarding `O=C1CCC(N2Cc3ccc(COC(=O)Nc4ccc5c(c4)CCC5)cc3C2=O)C(=O)N1` (stereo not drawn) [Compound 56], the DC50 under setting [1] lay in the range of 30 to 300 nM.

With `CCc1cc(NC(=O)OCc2ccc3c(c2)C(=O)N(C2CCC(=O)NC2=O)C3)cc(C)n1` (stereo not drawn) [Compound 71], the DC50 under setting [1] fell in the range of 30 to 300 nM.

Regarding `O=C1CCC(N2Cc3ccc(COC(=O)Nc4ccc5c(c4)OC(F)(F)O5)cc3C2=O)C(=O)N1` (stereo not drawn) [Compound 79], the DC50 reads like this: under setting [1], < 30 nM; under setting [2], ≤ 30 nM.

Consider `COc1cc(NC(=O)OCc2ccc3c(c2)C(=O)N(C2CCC(=O)NC2=O)C3)cnc1-c1ccccc1` (stereo not drawn) [Compound 90], for which the DC50 is, setting by setting: under setting [1], < 30 nM; under setting [2], ≤ 30 nM.

As for `O=C1CCC(N2Cc3ccc(COC(=O)Nc4cc(CN5CCOCC5)cc(OC(F)F)c4)cc3C2=O)C(=O)N1` (stereo not drawn) [Compound 95], the DC50 was < 30 nM under setting [1] and ≤ 30 nM under setting [2].

With `O=C1CCC(N2Cc3ccc(COC(=O)Nc4cc(OCCN5CCOCC5)cc(OC(F)F)c4)cc3C2=O)C(=O)N1` (stereo not drawn) [Compound 96], the DC50 under setting [1] is < 30 nM and the DC50 under setting [2] was ≤ 30 nM.

For the molecule `O=C1CCC(N2Cc3ccc(COC(=O)Nc4ccc(C5(F)CC5)nc4)cc3C2=O)C(=O)N1` (stereo not drawn) [Compound 109, (2-(2,6-dioxopiperidin-3-yl)-3-oxoisoindolin-5-yl)methyl (6-(1-fluorocyclopropyl)pyridin-3-yl)carbamate], the DC50 under setting [1] is < 30 nM and the DC50 under setting [2] is ≤ 30 nM.

With `Cc1cc(NC(=O)OCc2ccc3c(c2)C(=O)N(C2CCC(=O)NC2=O)C3)cc(F)c1C` (stereo not drawn) [Compound 117], the DC50 under setting [1] is 30 to 300 nM.

Turning to `Cc1cc(NC(=O)OCc2ccc3c(c2)C(=O)N(C2CCC(=O)NC2=O)C3)cc(C(C)(C)C)n1` (stereo not drawn) [Compound 118], the DC50 runs as follows: under setting [1], < 30 nM; under setting [2], ≤ 30 nM.

For the molecule `Cc1cc(Cl)c(NC(=O)OCc2ccc3c(c2)C(=O)N(C2CCC(=O)NC2=O)C3)cc1Cl` (stereo not drawn) [Compound 119], under setting [1], the DC50 is > 300 nM.

As for `CC(C)(C)C12CC(NC(=O)OCc3ccc4c(c3)C(=O)N(C3CCC(=O)NC3=O)C4)(C1)C2` (stereo not drawn) [Compound 120, (2-(2,6-dioxopiperidin-3-yl)-3-oxoisoindolin-5-yl)methyl (3-(tert-butyl)bicyclo[1.1.1]pentan-1-yl)carbamate], the DC50 under setting [1] lay within 30 to 300 nM.

As to `Cc1cc(C)c(NC(=O)OCc2ccc3c(c2)C(=O)N(C2CCC(=O)NC2=O)C3)cc1Cl` (stereo not drawn) [Compound 123, (2-(2,6-dioxopiperidin-3-yl)-3-oxoisoindolin-5-yl) methyl (5-chloro-2,4-dimethylphenyl)carbamate], the DC50 under setting [1] is > 300 nM.

With `Cc1c(F)cc(NC(=O)OCc2ccc3c(c2)C(=O)N(C2CCC(=O)NC2=O)C3)cc1F` (stereo not drawn) [Compound 127, (2-(2,6-dioxopiperidin-3-yl)-3-oxoisoindolin-5-yl)methyl (3,5-difluoro-4-methylphenyl)carbamate], the DC50 under setting [1] was in the range of 30 to 300 nM.

In the case of `Cc1ccc(OC(F)(F)F)cc1NC(=O)OCc1ccc2c(c1)C(=O)N(C1CCC(=O)NC1=O)C2` (stereo not drawn) [Compound 128], the DC50 under setting [1] was > 300 nM.

As to `O=C1CCC(N2Cc3ccc(COC(=O)NC4COC(c5ccccc5)OC4)cc3C2=O)C(=O)N1` (stereo not drawn) [Compound 130], the DC50 under setting [1] is > 300 nM.

On to `CC(C)(C)c1ccc(NC(=O)OCc2ccc3c(c2)C(=O)N(C2CCC(=O)NC2=O)C3)nc1` (stereo not drawn) [Compound 131, (2-(2,6-dioxopiperidin-3-yl)-3-oxoisoindolin-5-yl)methyl (5-(tert-butyl)pyridin-2-yl)carbamate], for which the DC50 under setting [1] lay in the range of 30 to 300 nM.

On to `O=C1CCC(N2Cc3ccc(COC(=O)Nc4cc(F)c(F)c(Cl)c4)cc3C2=O)C(=O)N1` (stereo not drawn) [Compound 132], for which the DC50 under setting [1] is 30 to 300 nM.

With `Cc1ccc(NC(=O)OCc2ccc3c(c2)C(=O)N(C2CCC(=O)NC2=O)C3)cc1F` (stereo not drawn) [Compound 133, (2-(2,6-dioxopiperidin-3-yl)-3-oxoisoindolin-5-yl)methyl (3-fluoro-4-methylphenyl)carbamate], the DC50 under setting [1] was in the range of 30 to 300 nM.

With `O=C1CCC(N2Cc3ccc(COC(=O)Nc4ccccc4)cc3C2=O)C(=O)N1` (stereo not drawn) [Compound 138, (2-(2,6-dioxopiperidin-3-yl)-3-oxoisoindolin-5-yl)methyl phenylcarbamate], the DC50 under setting [1] is > 300 nM.

As for `O=C1CCC(N2Cc3ccc(COC(=O)Nc4cc(C(F)(F)F)ns4)cc3C2=O)C(=O)N1` (stereo not drawn) [Compound 139], the DC50 under setting [1] lay within 30 to 300 nM.

Take `Cc1cc(F)c(NC(=O)OCc2ccc3c(c2)C(=O)N(C2CCC(=O)NC2=O)C3)cc1Cl` (stereo not drawn) [Compound 141, (2-(2,6-dioxopiperidin-3-yl)-3-oxoisoindolin-5-yl)methyl (5-chloro-2-fluoro-4-methylphenyl)carbamate]: the DC50 under setting [1] lay within 30 to 300 nM.

For the molecule `CC(C)(C)c1ccc(NC(=O)OCc2ccc3c(c2)C(=O)N(C2CCC(=O)NC2=O)C3)c(F)c1` (stereo not drawn) [Compound 142, (2-(2,6-dioxopiperidin-3-yl)-3-oxoisoindolin-5-yl)methyl (4-(tert-butyl)-2-fluorophenyl)carbamate], the DC50 under setting [1] lay in the range of 30 to 300 nM.

In the case of `Cc1cc(Cl)cc(NC(=O)OCc2ccc3c(c2)C(=O)N(C2CCC(=O)NC2=O)C3)c1` (stereo not drawn) [Compound 144, (2-(2,6-dioxopiperidin-3-yl)-3-oxoisoindolin-5-yl)methyl (3-chloro-5-methylphenyl)carbamate], the DC50 under setting [1] lay in the range of 30 to 300 nM.

For the molecule `O=C1CCC(N2Cc3ccc(COC(=O)Nc4cc(OC(F)(F)F)ccc4F)cc3C2=O)C(=O)N1` (stereo not drawn) [Compound 145, (2-(2,6-dioxopiperidin-3-yl)-3-oxoisoindolin-5-yl)methyl(2-fluoro-5-(trifluoromethoxy)phenyl)carbamate], the DC50 under setting [1] was in the range of 30 to 300 nM.

As for `Cc1cc(F)cc(NC(=O)OCc2ccc3c(c2)C(=O)N(C2CCC(=O)NC2=O)C3)c1` (stereo not drawn) [Compound 146, (2-(2,6-dioxopiperidin-3-yl)-3-oxoisoindolin-5-yl)methyl (3-fluoro-5-methylphenyl) carbamate], the DC50 under setting [1] lay in the range of 30 to 300 nM.

Turning to `CCc1nscc1NC(=O)OCc1ccc2c(c1)C(=O)N(C1CCC(=O)NC1=O)C2` (stereo not drawn) [Compound 147], the DC50 under setting [1] was > 300 nM.

On to `CC(C)(C)c1cccc(NC(=O)OCc2ccc3c(c2)C(=O)N(C2CCC(=O)NC2=O)C3)c1` (stereo not drawn) [Compound 153, (2-(2,6-dioxopiperidin-3-yl)-3-oxoisoindolin-5-yl)methyl (3-(tert-butyl)phenyl)carbamate], for which the DC50 runs as follows: under setting [1], < 30 nM; under setting [2], ≤ 30 nM.
